Data set [1] deals with HFF cells.
For data set [2], the system named is cowpox virus (CV). The data set can be described thus: microbe, parasite or virus in culture. The class given is cell-based.
The test system of data set [3] is vaccinia virus (VV). Nature of the data set: microbe, parasite or virus in culture. Type of data set: cell-based.
For data set [4] the following is noted: ref Barditch-Crovo et al., 1997; cited from earlier work.
Data set [5] in a line: in vitro. The note with it: human.
Data set [6] concerns cowpox virus (CV). The note with it: read-out: EC50 Cowpox; cited from earlier work.
For data set [7], the system named is Monkeypox. The following applies: read-out: EC50 Monkeypox; cited from earlier work.
In data set [8] the test system is vaccinia virus (VV). The note with it: read-out: EC50 Vaccinia; Table 4; ref Kern et al. (2002); cited from earlier work.
Data set [9] relates to Variola. The following applies: read-out: EC50 Variola; cited from earlier work.
Data set [10] deals with vaccinia, cowpox, monkeypox, and variola viruses. The class given is cell-based.
Data set [11] concerns vaccinia virus. Type of data set: in vivo, mice. The note with it: data not presented.
The subject of data set [12] is cowpox virus. Details: species or system mice. The note with it: mouse, in vivo.
Setting [13] is: Cowpox virus, HFF, read-out: EC50 CV.
[14] abbreviates: Orthopoxvirus vaccinia, HFF, read-out: EC50 VV.
[15] abbreviates: Cowpox virus, HFF, read-out: Cowpox virus EC50.
Where [16] appears, read: Orthopoxvirus vaccinia, HFF, read-out: Vaccinia virus EC50.

Where two headings read alike, the source gives them in different places. A value given as a limit tells only on which side of the number the result lay.

One may read the EC50 as the concentration that produces a half-maximal response. For the compound `CCOC(=O)C(C)NP1(=O)COC(Cn2ccc(N)nc2=O)CO1` (single isomer, unassigned; isomer i) [Ethyl alaninyl cyclic HPMPC—isomer I, Ethyl alaninyl cyclic HPMPC], the CC50 in data set [1] was over 276 µM. Also, the values for the EC50 in [2] (read-out: Cowpox virus EC50) and in data set [3] (read-out: Vaccinia virus EC50) were 27 ± 6.5 µM and 15 ± 13 µM, respectively.
The compound `CCOC(=O)C(C)NP1(=O)COC(Cn2ccc(N)nc2=O)CO1` (single isomer, unassigned; isomer ii) [Ethyl alaninyl cyclic HPMPC—isomer II, Ethyl alaninyl cyclic HPMPC] gave a CC50 in [1] of over 278 µM. The EC50 came to 26 ± 3.5 µM in data set [2] (read-out: Cowpox virus EC50) and 15 ± 11 µM in data set [3] (read-out: Vaccinia virus EC50).
On to `Nc1nc2c(ncn2COCCO)c(=O)[nH]1` [Acyclovir], for which the EC50 in data set [2] (setting [13]) and in data set [3] (setting [14]) was over 300 µM throughout.
As to `CC(C)(C)C(=O)OCOP(=O)(COCCn1cnc2c(N)ncnc21)OCOC(=O)C(C)(C)C` [Adefovir dipivoxil, bis(pivaloyloxymethyl)PMEA], the EC50 came out at 13 ± 8.8 µM in [2] (setting [15]), 13 µM in data set [2] (setting [13]), 5.1 µM in data set [3] (setting [14]) and 5.1 ± 0.7 µM in data set [3] (setting [16]). Moreover, the oral bioavailability entry in [4] is “good oral bioavailability”. Also, the CC50 in data set [5] was 117 ± 27 µM.
On to `Nc1ncnc2c1ncn2CCOCP(=O)(O)O` [Adefovir, 9-(2-phosphonylmethoxyethyl)adenine], for which the EC50 is over 366 µM in data set [2] (setting [15]), over 300 µM in [2] (setting [13]), over 300 µM in data set [3] (setting [14]) and over 366 µM in data set [3] (setting [16]). The same compound yielded a CC50 in [5] of over 366 µM.
For `Nc1nc(N)c2ncn([C@H]3CO[C@@H](CO)O3)c2n1` [Amdoxovir], the EC50 in data set [2] (setting [13]) and in data set [3] (setting [14]) was over 300 µM throughout.
In the case of `CCCCOC(=O)C(C)NP(=O)(COCCn1cnc2c(NC3CC3)nc(N)nc21)NC(C)C(=O)OCCCC` (centres unmarked) [Bis(butylalaninyl) PME(N^6-cyclopropyl)DAP], the CC50 in data set [1] is 49 ± 33 µM. In addition, the EC50 in [2] (read-out: Cowpox virus EC50) turned out to be 0.26 ± 0.2 µM; in [3] (read-out: Vaccinia virus EC50) it was 0.08 ± 0.01 µM.
In data set [1], `CCCCOC(=O)[C@H](C)NP(=O)(COCCn1cnc2c(N)ncnc21)N[C@@H](C)C(=O)OCCCC` [Bis(butylalaninyl)PMEA] came in with a CC50 of 100 ± 27 µM. The half-maximal effective concentration (EC50) in data set [2] (read-out: Cowpox virus EC50) amounted to 10 ± 8.2 µM; in data set [3] (read-out: Vaccinia virus EC50), 4.4 ± 0.2 µM.
Turning to `CC(C)OC(=O)OCOP(=O)(CO[C@H](C)Cn1cnc2c(N)ncnc21)OCOC(=O)OC(C)C` [Bis(isopropoxycarbonyloxymethyl)PMPA, bis(isopropoxycarbonyloxymethyl)PMPA], the EC50 in [2] (setting [15]) and in [3] (setting [16]) was over 157 µM each time. Besides, the CC50 in data set [5] was over 157 µM.
As to `O=c1[nH]c(=O)n([C@H]2C[C@H](O)[C@@H](CO)O2)cc1/C=C/Br` [Brivudin], the EC50 is 66 µM in data set [2] (setting [13]) and over 100 µM in data set [3] (setting [14]).
Regarding `Nc1ccn(C[C@@H](CO)OCP(=O)(O)O)c(=O)n1` [Cidofovir, (S)-1(3-hydroxy-2-phosphonylmethoxypropyl) cytosine], the EC50 is 43 ± 2.5 µM in data set [2] (setting [15]); 43 µM in data set [2] (setting [13]); 33 µM in data set [3] (setting [14]); 33 ± 9.1 µM in data set [3] (setting [16]); 44.7 ± 6.3 µM in [6]; 4.6 µM in [7]. For the same compound, the results for the EC50 in data set [8] and in data set [9] were 46.2 ± 11.9 µM and 27.3 µM, respectively. In [5], this compound displayed a CC50 of 278 ± 9.2 µM.
Consider `Cc1cn([C@H]2O[C@@H](CO)[C@H](O)[C@H]2F)c(=O)[nH]c1=O` [Clevudine], for which the EC50 in [2] (setting [13]) and in data set [3] (setting [14]) was over 300 µM each time.
As to `Nc1nc(=O)n([C@@H]2CS[C@H](CO)O2)cc1F` [Coviracil], the EC50 in [2] (setting [13]) and in [3] (setting [14]) was over 81 µM throughout.
`Nc1ccn(C[C@H]2COP(=O)(O)CO2)c(=O)n1` [Cyclic HPMPC (cHPMPC), Cyclic HPMPC]: the EC50 in data set [2] (setting [15]) is 48 ± 8 µM; in data set [3] (setting [16]), 38 ± 11 µM; in data set [6], 48.3 ± 8 µM; in data set [7] it was 63.6 µM; in data set [8], 50.6 ± 13.1 µM; in [9], 45.8 µM. Moreover, the CC50 in [5] was over 302 µM.
`CCOCn1c(Cc2ccccc2)c(C(C)C)c(=O)[nH]c1=O` [Emivirine]: the EC50 in [2] (setting [13]) and in data set [3] (setting [14]) was over 300 µM in each case.
In the case of `C=C1[C@H](CO)[C@@H](O)C[C@@H]1n1cnc2c(=O)[nH]c(N)nc21` [Entecavir], the EC50 was 85 µM in data set [2] (setting [13]) and 53 µM in [3] (setting [14]).
As to `CC(=O)OCC(CCn1cnc2cnc(N)nc21)COC(C)=O` [Famciclovir], the EC50 in data set [2] (setting [13]) and in data set [3] (setting [14]) was over 300 µM each time.
As to `O=c1[nH]c(=O)n([C@@H]2O[C@H](CO)[C@@H](O)[C@@H]2F)cc1I` [Fialuridine], the EC50 in data set [2] (setting [13]) came out at 0.24 µM; in data set [3] (setting [14]) it was 1.5 µM.
As to `O=C(O)P(=O)(O)O` [Foscarnet], the EC50 in data set [2] (setting [13]) and in data set [3] (setting [14]) was over 300 µM throughout.
On to `Nc1nc(O)c2ncn(COC(CO)CO)c2n1` [Ganciclovir], for which the concentration for a half-maximal effect (EC50) in data set [2] (setting [13]) and in [3] (setting [14]) was over 300 µM throughout.
With `Nc1ccn([C@@H]2O[C@H](CO)[C@@H](O)C2(F)F)c(=O)n1` [Gemcitabine], the “toxicity in vitro (in words)” value in data set [1] is “very toxic”. Besides, the values for the EC50 in [2] (setting [13]) and in data set [3] (setting [14]) were 0.017 µM and 0.013 µM, respectively. In addition, in data set [3], the selectivity index was over 200.
In the case of `CCCCCCCCCCCCCCCCOCCCOP1(=O)COC(Cn2ccc(N)nc2=O)CO1` (stereo not drawn) [HDP-cCDV, 3-hexadecyloxy-l-propanol cyclic CDV], the EC50 in data set [6] is 2.1 ± 1.9 µM; in data set [7] it was 1.8 µM; in data set [8] it was 3.8 ± 1.5 µM; in data set [9], 0.9 µM. Further, in [10], the “active at levels -fold less than the parent molecules” value is recorded as 50- to 200 fold.
`Nc1ncnc2c1ncn2C[C@@H](CO)OCP(=O)(O)O` [HPMPA, (S)-9-(3-hydroxy-2-phosphonylmethoxypropyl)adenine] yielded a CC50 in data set [1] of 269 ± 21 µM. Further, the EC50 in data set [2] (read-out: Cowpox virus EC50) amounted to 5 ± 4.7 µM; in [3] (read-out: Vaccinia virus EC50) it was 3.5 ± 2.8 µM. Also, in data set [3], the “fold more active than CDV” value is “about 10 fold”.
Consider `O=c1[nH]c(=O)n([C@H]2C[C@H](O)[C@@H](CO)O2)cc1I` [Idoxuridine], for which the EC50 was found to be 2 µM in data set [2] (setting [13]) and 6 µM in data set [3] (setting [14]).
Consider `CC(C)OC(=O)[C@H](C)N[P@](=O)(CO[C@H](C)Cn1cnc2c(N)ncnc21)Oc1ccccc1` [Isopropyl alaninylphenyl PMPA], for which the figures for the half-maximal effective concentration (EC50) in data set [2] (setting [15]) and in data set [3] (setting [16]) were 98.9 µM and 23.5 µM, respectively. This compound returned a CC50 in [5] of over 143 µM.
Turning to `Nc1ccn([C@@H]2CS[C@H](CO)O2)c(=O)n1` [Lamivudine], the EC50 in data set [2] (setting [13]) and in data set [3] (setting [14]) was over 400 µM throughout.
Turning to `Nc1nc(=O)c2ncn([C@@H]3C[C@H](CO)[C@H]3CO)c2[nH]1` [Lobucavir], the EC50 in data set [2] (setting [13]) was determined as 66 µM; in data set [3] (setting [14]), 27 µM.
For `Nc1cccc(CN2C(=O)N(Cc3cccc(N)c3)[C@H](Cc3ccccc3)[C@H](O)[C@@H](O)[C@H]2Cc2ccccc2)c1` [Mozenavir], in that order: over 100 µM and over 100 µM.
Regarding `Nc1nc(NC2CC2)c2ncn(CCOCP(=O)(O)O)c2n1` [PME(N^6-cyclopropyl)DAP], the CC50 in [1] was over 263 µM. Also, the EC50 in data set [2] (read-out: Cowpox virus EC50) was 28 ± 13 µM; in data set [3] (read-out: Vaccinia virus EC50), 23 ± 6.9 µM.
Turning to `Nc1nc(N)c2ncn(CCOCP(=O)(O)O)c2n1` [PMEDAP], the half-maximal effective concentration (EC50) is over 347 µM in data set [2] (setting [15]) and 204 ± 15 µM in [3] (setting [16]). This compound also showed a CC50 in [5] of over 339 µM.
In data set [1], `Nc1nc2c(ncn2CCOCP(=O)(O)O)c(=O)[nH]1` [PMEG, 2-phosphonylmethoxyethyl guanine] came in with a CC50 of 88 µM. Further, the values for the EC50 in [2] (read-out: Cowpox virus EC50) and in data set [3] (read-out: Vaccinia virus EC50) were 11.4 ± 1.3 µM and 4 ± 0.7 µM, respectively.
For the compound `C[C@H](Cn1cnc2c(N)ncnc21)OCP(=O)(O)O` [PMPA, (R)-9-(2-phosphonylmethoxypropyl)adenine], the EC50 in data set [2] (setting [15]) and in [3] (setting [16]) was over 300 µM each time. The CC50 in data set [5] is over 300 µM.
Take `Nc1nc2c(ncn2CCC(CO)CO)c(=O)[nH]1` [Penciclovir]: the EC50 in data set [2] (setting [13]) and in data set [3] (setting [14]) was over 300 µM each time.
Consider `C[C@H](NP1(=O)CO[C@@H](Cn2ccc(N)nc2=O)CO1)C(=O)OCCc1ccccc1` (some centres unmarked) [Phenethyl alaninyl cyclic HPMPC—mixture, Phenethyl alaninyl cyclic HPMPC], for which, in [1], the CC50 was 207 ± 18 µM. Besides, the values for the EC50 in data set [2] (read-out: Cowpox virus EC50) and in data set [3] (read-out: Vaccinia virus EC50) were 6.8 ± 1.8 µM and 7.1 ± 0.3 µM, respectively.
`NC(=O)c1ncn([C@@H]2O[C@H](CO)[C@@H](O)[C@H]2O)n1` [Ribavirin]: the EC50 in [2] (setting [13]) was over 400 µM; in data set [3] (setting [14]), 280 µM.
For the compound `O=c1[nH]c(=O)n([C@@H]2O[C@H](CO)[C@@H](O)[C@@H]2O)cc1/C=C/Br` [Sorivudine], the EC50 in data set [2] (setting [13]) and in data set [3] (setting [14]) was over 100 µM each time.
`Nc1ncnc2c1ncn2[C@@H]1O[C@H](CO)[C@@H](O)[C@@H]1O` [Vidarabine]: the “activity in murine model of vaccinia virus infection” value in data set [11] is recorded as “not active”. Moreover, in data set [12], the “activity in murine model of cowpox virus infection” value is “not active”.
`CC(C)OC(=O)OCOP(=O)(CO[C@H](C)Cn1cnc2c(N)ncnc21)OCOC(=O)OC(C)C` [Viread]: the EC50 in data set [2] (setting [13]) and in data set [3] (setting [14]) was over 300 µM each time.
Butyl salicyl cyclic HPMPC showed a CC50 in [1] of over 213 µM. Further, the results for the EC50 in data set [2] (read-out: Cowpox virus EC50) and in data set [3] (read-out: Vaccinia virus EC50) were 34 ± 4.2 µM and 32 ± 13 µM, respectively.
